Article PMC10367051, “Comprehensive Mechanistic View of the Hydrolysis of Oxadiazole-Based Inhibitors by Histone Deacetylase 6 (HDAC6)” (ACS Chemical Biology, 2023)

Key:
HDAC6(Y745F) mutant = target: T1, HDAC6(Y745F) mutant (Danio rerio, UniProt F8W4B7, Y745F); assay: Inhibitor hydrolysis in vitro by HDAC6(Y745F) mutant (LC-MS/MS); assay type: biochemical; conditions: 30 °C; for hydrolysis by the HDAC6(Y745F) mutant: 20 μM compound, 2 μM enzyme
T1 construct: Danio rerio HDAC6 (amino acids 440–798; zHDAC6); His (N, cleaved yes); MBP (N, cleaved yes); made in house; host or cells: RIPL Escherichia coli
T1 sequence (F8W4B7 440-798 Y745F): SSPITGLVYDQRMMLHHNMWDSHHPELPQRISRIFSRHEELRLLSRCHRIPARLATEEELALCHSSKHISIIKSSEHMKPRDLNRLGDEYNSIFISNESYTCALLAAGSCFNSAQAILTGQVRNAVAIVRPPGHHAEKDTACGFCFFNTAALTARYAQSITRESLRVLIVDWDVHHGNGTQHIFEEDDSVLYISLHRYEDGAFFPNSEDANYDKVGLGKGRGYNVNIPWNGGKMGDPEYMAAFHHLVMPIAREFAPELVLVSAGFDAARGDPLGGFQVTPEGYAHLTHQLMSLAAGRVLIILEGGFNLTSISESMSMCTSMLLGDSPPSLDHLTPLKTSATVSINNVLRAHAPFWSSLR
Description: The zHDAC6 mutants (Y745F and H574A) were constructed using the Quick-change site-directed mutagenesis protocol with the pEC566-zHDAC6 expression plasmid as a template. Both mutants were expressed and purified as described above for wild-type zHDAC6 (Figure S2).
Mass spectrometry quantification of inhibitors/reaction products was carried out with a Shimadzu LCMS-8040 instrument (Shimadzu, HPLC Prominence system). Analytes were separated on a Kinetex XB-C18 2.6 μm, 100 Å column (50 × 2.1 mm; Phenomenex) in a linear 15–60% CH3CN/H2O gradient containing 0.1% formic acid at a flow rate of 0.8 mL min^–1 over 4 min. Multiple reaction monitoring (MRM) parameters were optimized for each analyte, and corresponding major CID fragments were used for quantification. Analytes were quantified using corresponding calibration curves generated from pure compounds dissolved in water.
[…] […] Four microliter aliquots of reaction mixtures were injected into the system directly from the 96-well plate, and inhibitors/reaction products were quantitated as described above.

HDAC10 = target: T2, HDAC10 (Homo sapiens, UniProt Q969S8); assay: HDAC10 inhibition assay (HPLC readout); assay type: biochemical; conditions: purified human protein, fluorescein-labeled N8-acetylspermidine substrate, 15 min preincubation
T2 construct: made in house; host or cells: HEK293/T17
T2 sequence (Q969S8 1-669): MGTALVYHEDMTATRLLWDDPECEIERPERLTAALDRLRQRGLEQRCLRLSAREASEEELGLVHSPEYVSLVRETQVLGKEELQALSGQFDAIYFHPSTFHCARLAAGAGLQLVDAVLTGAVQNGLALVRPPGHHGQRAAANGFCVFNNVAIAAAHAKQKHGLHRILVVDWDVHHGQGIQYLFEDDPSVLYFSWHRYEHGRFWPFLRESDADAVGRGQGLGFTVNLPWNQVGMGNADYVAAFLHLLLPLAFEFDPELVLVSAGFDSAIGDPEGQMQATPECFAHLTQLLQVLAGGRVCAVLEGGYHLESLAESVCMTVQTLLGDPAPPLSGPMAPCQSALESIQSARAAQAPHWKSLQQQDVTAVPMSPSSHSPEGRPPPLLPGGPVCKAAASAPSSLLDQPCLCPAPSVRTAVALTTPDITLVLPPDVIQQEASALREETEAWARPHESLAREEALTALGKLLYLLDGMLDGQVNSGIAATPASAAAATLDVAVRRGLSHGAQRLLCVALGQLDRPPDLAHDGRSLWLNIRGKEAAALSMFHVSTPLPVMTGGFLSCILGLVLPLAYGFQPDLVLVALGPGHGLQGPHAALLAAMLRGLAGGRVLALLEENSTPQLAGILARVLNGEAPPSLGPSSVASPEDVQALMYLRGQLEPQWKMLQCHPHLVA
Description: Large-scale expression of recombinant human HDACs was carried out as described previously.[32],[37] Briefly, HEK293/T17 cells were transiently transfected with expression pMM222 plasmids comprising N-terminally tagged (TwinStrep-FLAG-HALO tag; Figure S1) HDAC genes using linear poly(ethyleneimine) (PEI, Polysciences Inc.). Cells were harvested three days post-transfection, and cell pellets were resuspended in the lysis buffer (100 mM Tris-HCl, 10 mM NaCl, 5 mM KCl, 2 mM MgCl2, and 10% glycerol at pH 8.0). Cells were disrupted by sonication, cell lysates were cleared by centrifugation, and soluble fusion proteins were first purified by Streptactin affinity chromatography (IBA). For all HDACs but HDACs 1, 10, and 11, the N-terminal tag was cleaved off overnight by the addition of TEV protease (10:1 HDAC/TEV ratio). […]
Optimized fluorometric assays were used to determine inhibition constants of studied compounds against individual HDAC isoforms as described previously.[32] […] Deacetylation reactions were monitored either by high-performance liquid chromatography (HPLC) (HDAC10) or by quantification of released AMC (λex/λem = 365/440 nm) using a CLARIOstar plate reader (BMG Labtech GmbH).

Structure (SMILES)	hydrolysis by the HDAC6(Y745F) mutant (HDAC6(Y745F) mutant)	IC50 (HDAC10)	rate of hydrolysis by the HDAC6(Y745F) mutant relative to wild type (HDAC6(Y745F) mutant; 20 μM 8, 2 μM enzyme)
CS(=O)(=O)N(Cc1ccc(C(=O)NNC(=O)C(F)F)cn1)c1cccc(Cl)c1 [compound 6]	hydrolyzed		
CS(=O)(=O)N(Cc1ccc(-c2nnc(C(F)(F)F)o2)cn1)c1cccc(Cl)c1 [compound 7]		> 20 µM	
CS(=O)(=O)N(Cc1ccc(-c2nnc(C(F)F)o2)cn1)c1cccc(Cl)c1 [compound 8]	hydrolyzed	> 20 µM	comparable to the wild-type HDAC6
